{"source": "patent US20240342138A1", "about": "“MICROTUBULE TARGETING AGENTS” (BPGbio, Inc., priority 2023, published 2024)", "key": {"A549 tumors": {"system": "A549 tumors", "assay": "Lung adenocarcinoma xenograft model", "format": "in vivo, nude mice", "details": "for Highest TGI (%): Day 7", "method": "(§1) FIG. 13A-13B show efficacy of Compound 1 in a lung adenocarcinoma xenograft model (A549). A) In vitro potency of Compound 1 in A549 cells as evaluated by ATPlite 1Step™ Perkin Elmer (performed by NTRC Oncolines). B) A549 cells (5×10^6) were implanted subcutaneously in athymic female nude mice and tumors were allowed to grow to a volume of ˜112 mm^3 followed by randomization of animals into three (3) groups (vehicle control, 75 mg/kg, 150 mg/kg Compound 1) with 12 animals per group. A Compound 1 solid dispersion was prepared prior to each dosing and administered by oral gavage two times a day (BID). Mean tumor volume of each group over time and the growth of tumor in each individual animal was graphed. For each individual animal of […] group TGI (%) was calculated based on the tumor growth inhibition of individual tumor at each given day of the study compared to the average of the group for that given day of the study. P-values were calculated using two-tailed distribution and two-sample equal variance (homoscedastic) for each group treated with Compound 1 for each given day of the study in reference to vehicle control. NS p>0.05; *p≤0.05; **p≤0.01; ***p p≤0.001; **** p≤0.0001.\n(§2) Anti-tumor efficacy of Compound 1 was evaluated against three (3) different preclinical oncology mice models of colorectal cancer, prostate cancer, and lung adenocarcinoma (see Table 5 below). For this purpose, an oral formulation of Compound 1 was used.\n(§3) A549 is a human lung adenocarcinoma cell line isolated from the lung tissue of their origin. […] A549 cells were implanted subcutaneously in nude mice and tumors were allowed to grow to an average volume of 112 mm^3 followed by randomization into three (3) groups consisting of vehicle control, 75 mg/kg and 150 mg/kg Compound 1 (12 animals per group). A Compound 1 solid dispersion was administered by oral gavage two times a day (BID). All animals remained in the study until Day 28 except one animal from Group 3 (Animal #29), which exited the study on Day 11 due to more than 20% body weight loss. This animal was excluded from all analysis. Data from Day 14-18 were excluded from the analysis due to inconsistencies in data collection methods."}, "COLO205 tumors": {"system": "COLO205 tumors", "assay": "Colorectal cancer xenograft model", "format": "in vivo, nude mice", "method": "FIG. 11A-11E show the efficacy of Compound 1 in a colorectal cancer xenograft model (COLO205). A) In vitro potency of Compound 1 in COLO205 cells as evaluated by ATPlite 1Step™ Perkin Elmer (performed by NTRC Oncolines). B) COLO205 cells were implanted subcutaneously in nude mice and tumors were allowed to grow to a volume of 210 mm3 followed by randomization of animals into three (3) groups (vehicle control, 75 mg/kg, 150 mg/kg Compound 1) with 12 animals per group. A Compound 1 solid dispersion was prepared prior to each dosing and administered by oral gavage two times a day (BID). Mean tumor volume of each group over time and the growth of tumor in each individual animal was graphed. For each individual animal of […] group TGI (%) was calculated based on the tumor growth inhibition of individual tumor at each given day of the study compared to the average of the group for that given day of the study. P-values were calculated using two-tailed distribution and two-sample equal variance (homoscedastic) for each group treated with Compound 1 for each given day of the study in reference to vehicle control. NS p>0.05; *p≤0.05; **p≤0.01; ***p p≤0.001; **** p≤0.0001. C) Plasma and tumor tissues from vehicle (n=11), 75 mg/kg (n=12), and 150 mg/kg (n=11) groups were harvested at the end of the study. The concentration of Compound 1 in the plasma or tumor tissue was plotted as a column plot (Average t SEM) or Scatter Plot with Median. D) Tumor tissues from vehicle (n=11), 75 mg/kg (n=12) and 150 mg/kg (n=11) groups were harvested at the end of the study when each animal was sacrificed. The level of two biomarkers, pHH3 and CCNB1 in each tissue was measured and graphed as the Min-to-Max plot and scatter plot of the level of each biomarker. The line in the scatter plot indicates the group mean. E) Body weight of each individual animal was measured on each day of the study and graphed using Graphpad Prism.\nas §2\nCOLO205 is a colorectal adenocarcinoma (Dukes' Type D) cell line of epithelial origin isolated from human colon. COLO205 is a model that is well validated in the cancer field for in vivo efficacy evaluation of oncology therapeutics. Nude mice were implanted subcutaneously with COLO205 cells and tumors were grown to an average tumor volume of 113 mm^3 followed by randomization into three (3) groups consisting of vehicle control, 75 mg/kg and 150 mg/kg Compound 1 (12 animals per group). A Compound 1 solid dispersion was administered by oral gavage two times a day (BID). Originally, the study was planned for 28 days of dosing; however, several animals left the study after 17 days of dosing due to tumor size reaching the limit of 2000 mm^3. Therefore, only the data for the first 17 days of dosing were used for the analysis. Additionally, one animal from vehicle group and one animal from 150 mg/kg group left the study prior to day 17 and were therefore removed from the analysis. The percentage of tumor growth inhibition (TGI %) was calculated for each individual animal."}, "[1]": {"system": "Triple Negative Breast Cancer patient-derived organoids CTG-1520, CTG-0896, CTG-1017", "assay": "Viability of PDO models of taxane resistance (CellTiter-Glo, 5 days)", "format": "cell-based, human", "method": "FIGS. 9A and 9B show potency of Compound 1 in patient-derived organoid (PDO) models of taxane resistance. Patient-derived organoids were treated with Compound 1, paclitaxel or controls (0.1% DMSO, positive control—10% DMSO) for 5 days. Viability was assessed using the CellTiter-Glo® assay. IC50 and maximal (max) inhibition values were extrapolated from the viability curves. A) Model overview and dose response curves to Compound 1 and paclitaxel. B) Summary of CellTiter-Glo results in all three models tested. Compiled data of N=4 replicates.\nCTG-1520 and CTG-0896 were derived from Triple Negative Breast Cancer (TNBC) patients post-treatment, and progression on a taxane-based therapy and the models' resistance to paclitaxel was confirmed by testing in vivo PDX (Patient-derived xenograft) tumor growth. […] Compound 1 and paclitaxel were tested head-to-head in each model in a dose-curve setting. 10% DMSO was used as the positive control for induction of 100% cell cytotoxicity."}, "A549 cells": {"system": "A549 cells", "assay": "In vitro potency, ATPlite 1Step (NTRC Oncolines)", "format": "cell-based", "details": "Homo sapiens; for Emax: A549, A549, in vitro, biphasic, read-out: Maximum effect (%)", "method": "as §1, §3"}}, "note": "Read-outs that look alike come from different tables or passages of the source.", "data": [{"smiles": "COc1ccccc1-c1nc(CNC(=O)c2ccccc2OC(F)F)n[nH]1", "note": "[Compound 1, 2-(difluoromethoxy)-N-[[5-(2-methoxyphenyl)-1H-1,2,4-triazol-3-yl]methyl]benzamide]", "values": [{"measurement": "Highest TGI (%)", "setting": "A549 tumors; 75 mg/kg BID oral", "result": 36.61, "unit": "%"}, {"measurement": "Highest TGI (%)", "setting": "A549 tumors; 150 mg/kg BID oral", "result": 55.43, "unit": "%"}, {"measurement": "Maximum TGI (%), end of the study", "setting": "A549 tumors; 150 mg/kg dose", "result": 34.64, "unit": "%"}, {"measurement": "Body weight", "setting": "A549 tumors; 75 and 150 mg/kg", "result": "no drug effect"}, {"measurement": "Average tumor growth", "setting": "A549 tumors; all doses evaluated, FIG. 13B", "result": "decreased the average tumor growth at all doses evaluated"}, {"measurement": "TGI (%)", "setting": "COLO205 tumors; 75 mg/kg BID oral, day 17", "result": 20.13, "unit": "%"}, {"measurement": "Maximum TGI (%), end of the study", "setting": "COLO205 tumors; 150 mg/kg BID oral, day 17", "result": 35.38, "unit": "%"}, {"measurement": "Body weight", "setting": "COLO205 tumors; 150 mg/kg group, FIG. 11E", "result": "no significant body weight change by the end of the study"}, {"measurement": "Level of Compound 1 in plasma and tumor tissue", "setting": "COLO205 tumors; 75 vs 150 mg/kg, end of study, FIG. 11C", "result": "dose-dependent elevation"}, {"measurement": "cyclin B1 and phospho Histone H3 (pHH3) in tumor tissue", "setting": "COLO205 tumors; markers of M phase arrest, FIG. 11D", "result": "increase"}, {"measurement": "Potency in PDO models", "setting": "[1]; CTG-1520, CTG-0896, CTG-1017, FIG. 9", "result": "potent in all three (3) PDO models tested"}, {"measurement": "Retention of potency in matched PDO models", "setting": "[1]; same patient before (CTG-1017) and after (CTG-1520) taxane-based chemotherapy", "result": "retained potency"}, {"measurement": "Emax", "setting": "A549 cells; at highest concentration tested", "result": 100, "unit": "%"}, {"measurement": "Emax", "setting": "A549 cells; first phase", "result": 52, "unit": "%"}, {"measurement": "IC50", "setting": "A549 cells; A549, biphasic response, first phase", "result": 53, "unit": "nM"}]}]}
